Legend:
[1] = target: T1, Polyunsaturated fatty acid 5-lipoxygenase (Rattus norvegicus) (UniProt P12527); conditions: RBL-1, 15 uM
T1 sequence (whole entry): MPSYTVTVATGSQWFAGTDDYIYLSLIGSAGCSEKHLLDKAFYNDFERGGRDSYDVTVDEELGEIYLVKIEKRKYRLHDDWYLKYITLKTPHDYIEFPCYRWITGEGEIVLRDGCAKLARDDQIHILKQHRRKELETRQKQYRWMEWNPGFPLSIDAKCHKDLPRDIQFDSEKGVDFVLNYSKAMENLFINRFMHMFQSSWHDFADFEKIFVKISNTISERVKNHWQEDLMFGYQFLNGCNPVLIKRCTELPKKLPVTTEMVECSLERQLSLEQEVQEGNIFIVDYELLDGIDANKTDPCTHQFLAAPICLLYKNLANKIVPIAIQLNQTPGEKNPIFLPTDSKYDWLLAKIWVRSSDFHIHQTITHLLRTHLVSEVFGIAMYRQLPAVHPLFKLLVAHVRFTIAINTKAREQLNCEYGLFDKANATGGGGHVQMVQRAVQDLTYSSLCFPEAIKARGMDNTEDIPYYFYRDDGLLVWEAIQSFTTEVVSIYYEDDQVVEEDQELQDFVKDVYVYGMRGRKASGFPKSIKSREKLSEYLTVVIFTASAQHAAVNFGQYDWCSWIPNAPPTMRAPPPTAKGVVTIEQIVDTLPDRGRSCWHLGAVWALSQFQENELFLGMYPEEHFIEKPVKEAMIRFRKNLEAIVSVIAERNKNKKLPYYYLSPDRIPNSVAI
Description: Inhibition of rat 5-lipoxygenase in rat RBL1 cells at 15 uM

[2] = target: T1, Polyunsaturated fatty acid 5-lipoxygenase (Rattus norvegicus); assay: Inhibition of rat 5-lipoxygenase in rat RBL1 cells at 30 uM; format: cell-based; conditions: RBL-1

| SMILES | inhibition [1] | inhibition [2] |
| --- | --- | --- |
| O=C1CCN(c2ccccc2)N1 | 50% |  |
| COC(=O)c1ccc(O)c(Oc2cc(C(=O)OC)ccc2O)c1 |  | 64% |
